Measured values published in BindingDB's records for doi:10.1073/pnas.0707365104 (Institut National De La Sant&#163, 2007).

Experiment: Inhibition of human telomerase expressed in HEK293T cells treated after telomerase elongation by telomeric repeat amplification protocol assay

CN(C)c1ccc(Nc2c3ccc(NC(=O)CCN4CCCC4)cc3nc3cc(NC(=O)CCN4CCCC4)ccc23)cc1 [N,N'-(9-{[4-(dimethylamino)phenyl]amino}acridine-3,6-diyl)bis(3-pyrrolidin-1-ylpropanamide)]
IC50: 65 nM
